{"source": "patent US7229826B2", "about": "“Process for ex vivo formation of mammalian bone and uses thereof” (The Regents of the University of Michigan, priority 1999, dated 2007)", "type_in_all_cases": "cell-based", "key": {"[1]": {"system": "human osteogenic cells (MG63, HBPC, primary osteoblasts)", "assay": "Inhibition of cell condensation (bone cell spheroid and microspicule formation)", "settings": "EGTA 0.5 mM; puromycin 5 μM; spheroid-forming conditions with TGF-β1", "experimental": "Inhibition of Cell Condensation. Cells were cultured in serum-free media under conditions that establish bone cell spheroids (as described above) in the presence of neutralizing antibodies to α2, α3, and/or β1 integrins, at 10 μg/ml. Isotype-specific inappropriate antibodies served as negative controls. Antibodies were added every second day over a seven-day culture period. EGTA (0.5 mM) was also used inhibition of cell aggregation, as was puromycin (5 μM)."}, "[2]": {"system": "human osteogenic cells (MG63, HBPC, primary osteoblasts)", "assay": "TGF-β1-induced bone cell spheroid formation in serum-free culture", "settings": "200 pM TGF-β1, serum-free, immediately following trypsinization", "experimental": "Culture of Osteogenic Cells and Cell Lines. Osteogenic cell lines such as human osteosarcoma cells (MG63) were cultured in RPMI 1640 (Gibco, Grand Island. N.Y.) containing 2 mM L-Glutamine, sodium pyruvate and 10% Fetal Calf Serun (FCS) (Hyclone Labs Inc., Logan, Utah). For bone cell spheroid formation, cells were grown to confluency, trypsinized, washed two times in RPMI, and immediately cultured in serum-free media containing 1% ITS+ (Collaborative Research Inc.) and 200 pM TGF-β1 (Collaborative). Unless otherwise noted, cells are plated at a density of about 10^3 to 10^6 cells/cm^2 in tissue culture dishes. Control cells were allowed to adhere to plastic for 3–4 hours in serum containing medium following trypsinization. This adherent cell layer was then washed twice with serum-free medium and cultured as above with or without TGF-β1.\nBone Cell-Spheroid Formation. In order to induce three-dimensional cell development (i.e., bone cell spheroids), cells were trypsinized as routinely performed for passage, the trypsin inactivated by serum addition, the cells washed three times, and immediately cultures in RPMI/ITS^+ (see above) containing 200 pM TGF-β1, Control cells were allowed to adhere to plastic for 3–4 hours in serum containing medium following trypsinization. This adherent cell layer was then washed twice with serum-free medium and cultured as above with or without TGF-β1."}, "[3]": {"system": "primary osteoblasts isolated from human bone", "assay": "Collagen synthesis by 3H-proline incorporation, delayed reduction electrophoresis", "settings": "densitometry", "experimental": "Collagen Synthesis. At the times indicated, bone cell-spheroids were washed with prolene-free DMEM containing 1% ITS, and incubated for 12 hours in the presence of ITS^+ and 100 μCi/ml (^3H) Proline (Amersham). Cells and medium were harvested, and cell lysates were made. Protein content was estimated by the BCA method (Smith, 1985), using a kit from Pierce (Rockford, Ill.). The cell lysates were lyophilized and extracted overnight at 4° C. with 0.5M acetic acid containing 100 μg/ml pepsin (Sigma Chemical Co., St. Louis, Mo.). Samples were dried, dissolved in non-reducing SDS-gel buffer and analyzed on a 5% SDS-gel. The αl(1) and αl(111) components were resolved by delayed reduction electrophoresis (Sykes, 1976). The gels were treated with Amplify (Amersham, England), and the radiolabeled collagen visualized by autoradiography. The percentage of Type I collagen was determined using the following formula (Franceschi, 1988)."}, "[4]": {"system": "human osteogenic cells (MG63, HBPC, primary osteoblasts)", "assay": "Western analysis of bone protein expression in spheroids", "settings": "each osteogenic cell type; versus serum-free cells in the absence of TGF-β1", "experimental": "Western Analysis. The procedure used was essentially that of Towbin (1979). Samples were run on a 10% SDS-PAGE. The electrophoretically resolved proteins were transferred to nitrocellulose (Schleicher & Schuell; Keene, N.H.) and the nonspecific binding sites blocked using 5% Skim milk in TBST (10 mM Tris, 0.15M NaCl, 0.05% Tween 20, pH 7.5). The nitrocellulose membrane was incubated with primary antibodies: anti-Osteonectin (ON), anti-alkaline phosphatase, (both generous gifts of Dr. Kenneth Mann, University of Vermont) or anti-Type I collagen (Collaborative); each at 10 μg/ml in TBST) for 1 hour at room temperature, washed with TBST and treated with the secondary antibody (anti-mouse IgG-HRP conjugated; Amersham) at a 1:1000 dilution in the same buffer. The HRP/anitbody-labeled proteins were visualized by enhanced chemilluminescence (Pierce)."}, "[5]": {"system": "murine LTBMC (unfractionated bone marrow)", "assay": "Murine long-term bone marrow culture (LTBMC) osteogenesis, von Kossa / Masson positive foci and microspicules", "from_the_text": "The inventors therefore established murine LTBMC and probed their capacity to express markers of osteogenesis. […] Additionally, they have developed a smaller culture volume system (dropping from 100 -mm tissue culture dishes to 35 mm ones) to allow better utilization of human osteoblasts. Using this modification on murine cells (which respond less robustly to TGF-β as a solitary cytokine), the inventors examined the role of IGF in modulating this process.\nEndothelial cells are important sources of cytokines for both hematopoietic and osteogenesis cells. An important regulator of endothelial cells, VEGF, is known to affect both endothelial cells, and bone cell development (although it is not clear if the latter is a direct effect)."}}, "note": "Entries after “also recorded” stand apart in the source; their conditions may differ."}
{"compound": "O=C(O)CN(CCOCCOCCN(CC(=O)O)CC(=O)O)CC(=O)O", "note": "[EGTA]", "values": [{"measurement": "spheroid formation (effect in words)", "setting": "[1]", "result": "completely inhibited"}]}
{"compound": "COc1ccc(C[C@H](N)C(=O)N[C@H]2[C@@H](O)[C@H](n3cnc4c(N(C)C)ncnc43)O[C@@H]2CO)cc1", "note": "[puromycin]", "values": [{"measurement": "spheroid formation (effect in words)", "setting": "[1]", "result": "completely blocked; also recorded: completely inhibited"}]}
{"compound": "TGF-β1: multifunctional cytokine of the TGF-β family, osteogenic growth factor used at 200 pM (human) or 25 pM (murine)", "values": [{"measurement": "time to formation of three-dimensional spherical cellular condensates (cell spheroids)", "setting": "[2]", "result": "24 to 48", "unit": "h"}, {"measurement": "increase in collagen synthesis on TGF-β1-dependent spheroid formation", "setting": "[3]", "result": "two to three fold increase"}, {"measurement": "expression of osteonectin and alkaline phosphatase", "setting": "[4]", "result": "markedly increases"}, {"measurement": "capacity to drive murine osteogenesis (individually)", "setting": "[5]; TGF-b 25 pM, IGF 15 pM, each alone", "result": "little capacity"}]}
{"compound": "VEGF", "values": [{"measurement": "increase in number of von Kossa cellular foci", "setting": "[5]; VEGF 10 ng/mL", "result": 2.5, "unit": "fold"}, {"measurement": "increase in number of collagen-positive and von Kossa-positive developmental foci per culture", "setting": "[5]; VEGF 10 ng/mL added to LTBMC", "result": "75–80%"}, {"measurement": "increase in number of microspicules per culture", "setting": "[5]; VEGF 10 ng/mL, over the first three weeks of culture", "result": "~5", "unit": "fold"}]}
